Data as given in patent US12583816B2, “Lipids for lipid nanoparticle delivery of active agents” (ACUITAS THERAPEUTICS, INC., priority 2018, dated 2026).

Assays:
[1] = Determination of pKa of formulated lipids (TNS fluorescence assay in lipid nanoparticles); format: physicochemical
Experimental: As described elsewhere, the pKa of formulated cationic lipids is correlated with the effectiveness of LNPs for delivery of nucleic acids (see Jayaraman et al, Angewandte Chemie, International Edition (2012), 51(34), 8529-8533; Semple et al, Nature Biotechnology 28, 172-176 (2010)). The preferred range of pKa is ˜5 to ˜7. […] Lipid nanoparticles comprising cationic lipid/DSPC/cholesterol/PEG-lipid (50/10/38.5/1.5 mol %) in PBS at a concentration of 0.4 mM total lipid are prepared using the in-line process as described in Example 1. TNS is prepared as a 100 μM stock solution in distilled water. Vesicles are diluted to 24 μM lipid in 2 mL of buffered solutions containing, 10 mM HEPES, 10 mM MES, 10 mM ammonium acetate, 130 mM NaCl, where the pH ranged from 2.5 to 11. An aliquot of the TNS solution is added to give a final concentration of 1 μM and following vortex mixing fluorescence intensity is measured at room temperature in a SLM Aminco Series 2 Luminescence Spectrophotometer using excitation and emission wavelengths of 321 nm and 445 nm. A sigmoidal best fit analysis is applied to the fluorescence data and the pKa was measured as the pH giving rise to half-maximal fluorescence intensity.

[2] = test system: luciferase expression in the liver; assay: In vivo luciferase mRNA expression rodent model (lipid nanoparticle formulations, liver luciferase); parameters: species or system mice; settings: LNP with FLuc mRNA, PEG-DMA; 0.5 mg mRNA/kg, tail vein injection, liver 4 hours after administration
Experimental: Lipid nanoparticles are prepared and tested according to the general procedures described in PCT Pub. Nos. WO 2015/199952 and WO 2017/004143, the full disclosures of which are incorporated herein by reference. Briefly, cationic lipid, DSPC, cholesterol and PEG-lipid are solubilized in ethanol at a molar ratio of about 50:10:38.5:1.5 or about 47.5:10:40.8:1.7. Lipid nanoparticles (LNP) are prepared at a total lipid to mRNA weight ratio of approximately 10:1 to 30:1. The mRNA is diluted to 0.2 mg/mL in 10 to 50 mM citrate or acetate buffer, pH 4. Syringe pumps are used to mix the ethanolic lipid solution with the mRNA aqueous solution at a ratio of about 1:5 to 1:3 (vol/vol) with total flow rates above 15 mL/min. The ethanol is then removed and the external buffer replaced with PBS by dialysis. Finally, the lipid nanoparticles are filtered through a 0.2 µm pore sterile filter. Lipid nanoparticle particle size is approximately 55-95 nm diameter, and in some instances approximately 70-90 nm diameter as determined by quasi-elastic light scattering using a Malvern Zetasizer Nano ZS (Malvern, UK).
Studies are performed in 6-8 week old female C57BL/6 mice (Charles River) or 8-10 week old CD-1 (Harlan) mice (Charles River) according to guidelines established by an institutional animal care committee (ACC) and the Canadian Council on Animal Care (CCAC). Varying doses of mRNA-lipid nanoparticle are systemically administered by tail vein injection and animals euthanized at a specific time point (e.g., 4 hours) post-administration. Liver and spleen are collected in pre-weighed tubes, weights determined, immediately snap frozen in liquid nitrogen and stored at −80° C. until processing for analysis.
For liver, approximately 50 mg is dissected for analyses in a 2 mL FastPrep tubes (MP Biomedicals, Solon OH). ¼″ ceramic sphere (MP Biomedicals) is added to each tube and 500 μL of Glo Lysis Buffer—GLB (Promega, Madison WI) equilibrated to room temperature is added to liver tissue. Liver tissues are homogenized with the FastPrep24 instrument (MP Biomedicals) at 2×6.0 m/s for 15 seconds. Homogenate is incubated at room temperature for 5 minutes prior to a 1:4 dilution in GLB and assessed using SteadyGlo Luciferase assay system (Promega). Specifically, 50 μL of diluted tissue homogenate is reacted with 50 μL of SteadyGlo substrate, shaken for 10 seconds followed by 5 minute incubation and then quantitated using a CentroXS^3 LB 960 luminometer (Berthold Technologies, Germany). The amount of protein assayed is determined by using the BCA protein assay kit (Pierce, Rockford IL). Relative luminescence units (RLU) are then normalized to total ug protein assayed. To convert RLU to ng luciferase a standard curve is generated with QuantiLum Recombinant Luciferase (Promega). […]

[3] = cationic lipid formulated in LNP (cationic lipid/DSPC/cholesterol/PEG-lipid 50/10/38.5/1.5 mol %), TNS fluorescence, pH giving half-maximal fluorescence, Table 2
[4] = formulated cationic lipid in LNP, TNS assay, Table 4

pKa [1, 3]	pKa [1, 4]	Structure (SMILES)	Liver Luc @ 0.5 mg/kg (ng luc/g liver) [2] [ng luc/g liver]
7.23	–	CCCCCCCCC(CCCCCC)CN(CC(CCCCCC)CCCCCCCC)C(=O)CCCCCCCN(C)C (stereo not shown) [Compound I-7]	–
8.15	–	CCCCCCCCC(CCCCCC)CN(CC(CCCCCC)CCCCCCCC)C(=O)CCCCNC(C)C (stereo not shown) [Compound I-4]	–
6.49	–	CCCCCCCCC(CCCCCC)CN(CC(CCCCCC)CCCCCCCC)C(=O)CCCCN(CCO)CCO (stereo not shown) [Compound I-3]	–
7.15	–	CCCCCCCCC(CCCCCC)CN(CC(CCCCCC)CCCCCCCC)C(=O)CCCCCCCCN(C)C (stereo not shown) [Compound I-6]	–
–	5.96	CCCCCCCCC(CCCCCC)CN(CCCCCCCCCN(C)C)CC(CCCCCC)CCCCCCCC (stereo not shown) [Compound I-8]	1761 ± 598
7.42	–	CCCCCCCCC(CCCCCC)CN(CC(CCCCCC)CCCCCCCC)C(=O)CCCCCN(C)C (stereo not shown) [Compound I-2]	–
6.25	–	CCCCCCCCC(CCCCCC)CN(CC(CCCCCC)CCCCCCCC)C(=O)CCN(C)C (stereo not shown) [Compound I-5]	1417 ± 390
–	5.85	CCCCCCCCC(CCCCCC)CN(CCCCCCCCN(C)C)CC(CCCCCC)CCCCCCCC (stereo not shown) [Compound I-9]	341 ± 126
6.68	–	CCCCCCCCC(CCCCCC)CN(CC(CCCCCC)CCCCCCCC)C(=O)CCCCN(C)C (stereo not shown) [Compound I-1]	206 ± 141
